The subject of data set [1] is Lepeophtheirus salmonis. In words: Salmon - in vivo efficacy against sea lice using gavage administration. Conditions: po, 168 h.
Data set [2] deals with Adult fleas (Ctenocephalides felis). In words: Flea feeding assay. The conditions noted are these: 48 h, read-out: flea inhibition (% of dead+damaged fleas). A digest of the protocol:
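Adult C. felis of defined age fed through artificial membranes on blood spiked with declining test-compound concentrations (DMSO-emulsifier-blood vehicle). After ~48 h continuous feeding, % dead plus damaged fleas per concentration was scored against untreated and solvent controls.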

In data set [3] the test system is larvae of Rhipicephalus microplus isolates with known resistance profiles. The data set is described as follows: Tick larvae resistance assay (larval immersion test, LIT). As for the experimental part:
A tick resistance assay (i.e., larval immersion test, LIT) was carried out using larvae of several Rhipicephalus microplus isolates with known resistance profiles (i.e.: fully susceptible; resistant to dieldrin, coumaphos, DDT, chlorpyriphos, flumethrin, cypermethrin, amitraz, fluazuron).
Tick larvae (Rhipicephalus microplus) were immersed for approximately 3 minutes in test compound solution. Tick mortality was assessed approximately 24 hours after contact exposure. The vitality of used parasites was confirmed in negative control groups (i.e., an untreated control and a solvent control).

Data set [4] concerns Fly larvae I (Lucilia cuprina). The data set is described as follows: Fly larvae contact/feeding assay. The conditions noted are these: 48 h, read-out: Inhibition of fly larvae development. On the procedure:
Fly larvae I (Lucilia cuprina) were grown in medium spiked with declining concentrations of a test compound (dissolved in a DMSO-emulsifier-deionized water mixture). Inhibition of fly larvae development (%) was assessed after approximately 48 hours of continuous exposure. The vitality of used parasites was confirmed in negative control groups (i.e., an untreated control and a solvent control).

Data set [5] deals with Rhipicephalus microplus tick larvae. In words: Tick larvae contact assay. Conditions: read-out: Tick inhibition (% of damage+dead ticks). As for the experimental part: Tick larvae (Rhipicephalus microplus) were immersed for approximately 3 minutes in declining concentrations of a test compound (dissolved in a DMSO-emulsifier-deionized water mixture). Tick inhibition (% of damage+dead ticks per test concentration) was assessed approximately 24 hours after contact exposure. The vitality of used parasites was confirmed in negative control groups (i.e. an untreated control and a solvent control).

The test system of data set [6] is Adult fleas (Ctenocephalides felis). The data set is described as follows: Flea contact assay. Conditions: 48 h, read-out: flea inhibition (% of dead+damaged fleas). As for the experimental part: Adult fleas (Ctenocephalides felis) were exposed to filter paper impregnated with declining concentrations of a test compound (dissolved in a DMSO-emulsifier-deionized water mixture). After approximately 48 hours of continuous contact exposure, flea inhibition (% of dead+damaged fleas per test concentration) was assessed. The vitality of used parasites was confirmed in negative control groups (i.e., an untreated control and a solvent control).

In data set [7] the test system is Lepeophtheirus salmonis. In words: Salmon - in vivo efficacy against sea lice using in-feed administration. The conditions noted are these: for prophylactic efficacy against re-infestation: 1 mg/kg in feed for 7 days. As for the experimental part: Commercial fish feed pellets were coated with formulated test compound. As formulation DMSO 5%/fish oil 95% was used. Salmon (Salmo solar) were treated orally with 1 mg/kg fish biomass via coated feed for 7 consecutive days. Salmon of the negative control groups received only feed coated with the excipients of the formulation.
Fish of the therapeutic groups were infested with Lepeophtheirus salmonis copepodids twice before treatment (around day −28 and day −3).
Fish of the prophylactic groups were infested at several time points after treatment in 2-week intervals. The fish were assessed for (pre-)adult sea lice approximately 3 weeks after each re-infestation. At each assessment, all (pre-)adult sea lice were removed from the fish. […] Efficacy is expressed as a % reduction of sea lice in treated groups versus a control group using the Abbott's formula.

Data set [8] relates to mobile sea lice stages of Lepeophtheirus salmonis-isolates with known resistance profiles. The data set is described as follows: Sea lice resistance assay. As for the experimental part: A sea lice resistance assay was carried out using mobile sea lice stages (i.e., pre-adults, adults) of several Lepeophtheirus salmonis-isolates with known resistance profiles (i.e.: fully susceptible, resistant to azametiphos (OP), emamectin benzoate (ML), deltamethrin (SP). Sea lice were exposed to seawater spiked with declining concentrations of a test compound (dissolved in a PEG300/sea-water mixture). Sea lice inhibition (% of dead+damaged sea lice) was assessed after approximately 1, 24 and 48 hour/s of continuous exposure in comparison to a negative (solvent) control group.

Data set [9] relates to Mobile stages of sea lice (pre-adults, adults of Caligus rogercresseyi). The data set is described as follows: Adult Caligus rogercresseyi sea lice contact assay. On the procedure: Mobile stages of sea lice (i.e., pre-adults, adults of Caligus rogercresseyi) were exposed to seawater spiked with declining concentrations of a test compound (dissolved in a PEG sea-water mixture). Sea lice inhibition (% of dead+damaged sea lice) was assessed after approximately 1, 24 and 48 hours of continuous exposure in comparison to a negative (solvent) and untreated control group.

Data set [10] has as its system Lepeophtheirus salmonis. In words: Salmon - in vivo efficacy against sea lice using gavage administration. The conditions noted are these: 5 mg/kg once by gavage, counted around day 28. In a few lines:
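Salmon given a single oral gavage of 5 mg/kg in 5% DMSO/95% fish oil on day 0, with vehicle controls. L. salmonis copepodid infestations around days −28, −3 and 17; lice counted by stage around day 28, efficacy as % reduction versus control by Abbott's formula.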

The nature of data set [11]: In vitro test of rain fastness. In kind it is physicochemical. The conditions noted are these: 5% solution in Miglyol 840 on rabbit hide, 4 hours, then 30 minutes in water. As for the experimental part: In addition to good absorbance, the composition according to the invention has a high resistance to water. After applying a 5% solution of Compound 453 in Miglyol 840 to rabbit hide and allowing to sit for 4 hours, the sample was soaked in water for 30 minutes.

Setting [12] is: 1 mg/kg fish biomass via coated feed for 7 consecutive days.

Like-named read-outs stand apart in the source and are kept apart here.

Turning to `O=C(Nc1ccc(F)cc1F)c1cc(NC(=O)[C@H]2[C@H](c3ccc(F)c(Cl)c3)C2(Cl)Cl)ccc1Cl` [Compound 197], in the data set on Lepeophtheirus salmonis [1] (read-out: therapeutic efficacy against (pre-)adult sea lice (% reduction vs control)), the inhibition in vivo at 5 mg/kg came to 80%. Also, in data set [2], the inhibition at 1 ppm amounted to 80%. Also, the LC50 stood at 0.343 ppm in data set [3] (isolate resistant to Coumaphos, Flumethrin, Cypermethrin); 0.375 ppm in data set [3] (isolate resistant to Coumaphos, Flumethrin, Cypermethrin, Amitraz); 0.346 ppm in data set [3] (isolate resistant to DDT, Dieldrin, Coumaphos); 0.335 ppm in data set [3] (isolate resistant to DDT, Dieldrin, Coumaphos, Chlorpyriphos); 0.270 ppm in data set [3] (isolate resistant to Dieldrin, Coumaphos, Fluazuron); 0.288 ppm in data set [3] (isolate: Fully susceptible). Moreover, the inhibition at 100 ppm in data set [4] and in data set [5] was 80% each time. Further, the inhibition at 25 µM in data set [5] is no less than 80%. Besides, the inhibition at 49 µM in [5] was 80%. Besides, the inhibition at 388 µM in [5] was 80%. Besides, the inhibition at 1000 ppm in data set [6] is 80%.
On to `O=C(Nc1ncc(F)cc1F)c1cc(NC(=O)[C@H]2[C@H](c3cc(Cl)cc(Cl)c3)C2(Cl)Cl)ccc1Cl` [Compound 453], for which, in the data set with Lepeophtheirus salmonis [7] (setting [12]), the “therapeutic efficacy against (pre-)adult sea lice” value came out at 100%. The “therapeutic efficacy against juvenile sea lice” value in the data set on Lepeophtheirus salmonis [7] (setting [12]) was 100%. Also, the “prophylactic efficacy against re-infestation” value in the data set on Lepeophtheirus salmonis [7] (re-infestation D14) was 100%; in the data set with Lepeophtheirus salmonis [7] (re-infestation D28), 99.9%; in the data set with Lepeophtheirus salmonis [7] (re-infestation D42) it was 86.0%. Also, the inhibition in vivo at 5 mg/kg in the data set with Lepeophtheirus salmonis [1] (read-out: therapeutic efficacy against (pre-)adult sea lice (% reduction vs control), salmon, 5 mg/kg once by gavage, day -28 infestation, counted day 7) amounted to 100%. For the same compound, in [8], the “effectiveness against sensitive isolate and multi-resistant isolate” value is on record as “equally effective”. Moreover, the EC50 in data set [8] (multi-resistant isolate, after 24 hours) stood at 1.96 ppb; in data set [8] (multi-resistant isolate, after 48 hours), 0.64 ppb; in data set [8] (sensitive isolate, after 24 hours), 1.20 ppb; in data set [8] (sensitive isolate, after 48 hours) it was 0.29 ppb; in data set [9] (after 24 hours), 0.072 ppb; in [9] (after 48 hours) it was 0.035 ppb. For the same compound, in the data set on Lepeophtheirus salmonis [10], the “prophylactic efficacy at re-infestation on Day 17 (% reduction vs control)” value is listed as 100%. For the same compound, the “presence of Compound 453 in the water” value in data set [11] was “below the detection limit”. Also, the “weight loss after soaking in water” value in data set [11] is recorded as 4%.

Usually inhibition stands for the percentage by which the read-out fell short of the control. A word on the LC50: it is the concentration that kills 50% of the test population. The low end stands for greater toxicity, the high end for lower toxicity.

Values taken from patent publication US20240315993A1, “ANTIPARASITIC COMPOUNDS” (Intervet Inc., priority 2021, published 2024).
